The test system of assay [1] is perception of the sweet taste of an aqueous solution of sweetener. Kind of assay: Ranking sip and spit test of sweetness perception (R index). The assay is classed as in vivo, humans. To be noted: vs negative control. On the procedure:
The effect of the test compounds on the perception of the sweet taste of an aqueous solution of sweetener in humans was evaluated using a ranking “sip and spit” method.
The aqueous sweetener solutions were prepared by adding, fructose, sucrose or glucose (by weight), to water to achieve the desired concentration.
Compounds were first prepared as a 500-fold concentrated stock solution in 100% ethanol. These concentrated stocks were then added to the aqueous sweetener solutions to result in a final ethanol concentration of 0.2%. The control (positive and negative) samples were also normalized to 0.2% ethanol.
In the ranking test used for compound evaluation, taste panelists (n=15), rank samples in increasing order of sweetness. One set, comprising of 6 samples, was presented to each panelists at a given time and are asked to rank them in order of increasing sweetness.
Panelists were instructed not to eat or drink (except water) for at least 1 h before the test. During the test, panelists were instructed to sip each sample, swirl it around their mouth and then expectorate. After tasting each set, panelists were instructed to rank the 6 samples within the set from least sweet to most sweet. Where rank 1—is lowest in sweetness and rank 6—is highest in sweetness. Panelists cleansed their palates by rinsing with water, eating a cracker and waiting for an interval of 10 minutes. All samples were tasted at ambient temperatures. Each sample was tasted twice.
R index analysis was utilized to determine the degree of difference between a test and control sample. It indicates the level of discrimination between two samples. […] A positive control sample was used to assess the ability of the panelists to accurately discriminate sweetness perception differences from the negative control.

Assay [2] has as its system perception of the sweet taste in an aqueous environment. Kind of assay: Trained descriptive analysis (DA) panel, sweet attribute. The assay is classed as in vivo, humans. The note with it: for DA Panel Average Sweetness Intensity Score (on 15 cm scale) / Fold enhancement of sweetness perception as compared to control sweetener solution / Perceived inherent sweetness compared to solubilizing agent alone / Perceived sweetness compared to solubilizing agent alone (inherent sweetness): 35 ppm compound plus solubilizing agent; for Perceived inherent sweetness compared to solubilizing agent alone: citric acid-citrate solution pH 3; for Compound effects beyond the additive effect of inherent sweetness: 4% fructose and 8% sucrose; for Compound effects beyond the additive effect of inherent sweetness / Perceived sweetness vs control sweetener solutions (FIG. 2) / Perceived sweetness vs control sweetener solutions (FIG. 1): 35 ppm; for Perceived sweetness vs control sweetener solutions (FIG. 2) / Perceived sweetness vs control sweetener solutions (FIG. 1): fructose and sucrose, ** p<0.01; for Perceived sweetness compared to solubilizing agent alone (inherent sweetness): water pH 7. On the procedure: The effect of the test compounds on the perception of the sweet taste in an aqueous environment, in the absence or presence of carbohydrate sweeteners, was evaluated using a descriptive analysis methodology with a group of trained panelists, as follows.
Candidate panelists were recruited, with prescreening and personal interviews, and were assessed for their ability to detect, recognize and differentiate basic taste attributes or mixtures thereof as part of a standardized acuity test. These candidate panelists were also assessed for their innate ability to identify flavors, and to rank on intensity scales. Other senses such as smell and vision were also included as part of the assessment. Candidates also were screened for their ability to use the language to describe and articulate ideas.
Selected candidates proceeded to training as a group in three phases: (1) Lexicon development, (2) Concept alignment, and (3) Scaling descriptors. During lexicon development, panelists evaluated products appropriate for use in the study to generate and align on terms describing the flavor, taste, aromatic, trigeminal, and temporal attributes. During concept alignment, the panel evaluated the products mentioned above to clarify and confirm the attributes that were generated during lexicon development using reference standards that appropriately define each attribute; these are either physical references (e.g. sucrose solutions) or verbal descriptions (e.g. overall flavor). Product terms and concepts were validated during this portion of the study.
In the last phase, scaling descriptors, the panel participated in a series of exercises focused on ordering and ranking samples according to relative attribute intensity, measuring attribute intensity using a defined length of line scale. Whenever possible, different levels or concentration of references were used as anchors to facilitate use of the scale. Panelists were provided with blinded references at this stage to evaluate their understanding and perception of the scale.
The panel used in this example was trained to reference sweet attributes in an absolute manner, such that a particular concentration of sweetener is always measured by the panelists at the same point using a 15 cm line scale where each cm represents a 1% increase in sucrose to cover the range of 0% to 15% sucrose. For the rest of the attributes, the panel was trained using a hybrid approach between descriptive analysis methods (e.g. quantitative descriptive analysis, the sensory spectrum, etc.) well-known to those skilled in the art.
The trained panel was then used for a descriptive analysis assessment for Compounds 1, 2 and 3 in aqueous solutions at pH 3 and pH 7. Each of the three compounds was tested at 35 ppm in sucrose and fructose sweeteners. In addition, Compounds 1, 2 and 3 were also examined in water at pH 3 and pH 7 to assess for any inherent sweetness.
The aqueous sweetener solutions were prepared by adding, fructose or sucrose (by weight), to water to achieve the desired concentration. Aqueous sucrose solutions at pH 3 were buffered using a final concentration of 0.096% Citric Acid plus 0.036% Sodium Citrate while aqueous fructose solutions at pH 3 were buffered using a final concentration of 0.06% Citric Acid and 0.0225% Sodium Citrate.
Compounds were first prepared as a […] concentrated stock solution in 100% ethanol. These concentrated stocks were then added to the aqueous sweetener solutions to result in a final ethanol concentration of 0.2%. In addition to compounds, a solubilizing agent at a final concentration of 0.02% was added to the aqueous sweetener solutions. Control samples were also balanced with 0.2% ethanol and in certain cases 0.02% solubilizing agent.
Both control (aqueous sweetener solutions without compound) and variant (aqueous sweetener solutions with compound) samples were blinded and randomized (by sweetener and pH blocks). […]

Where [3] appears, read: citric acid-citrate solution pH 3, no sweetener.
Setting [4] is: water pH 7, no sweetener, 1 cm = 1% sucrose.

For `COc1ccc(C2CC(=O)c3c(O)cccc3O2)cc1O` (single isomer, unassigned) [Compound 3, 5-hydroxy-2-(3-hydroxy-4-methoxyphenyl)chroman-4-one], the “R Index Score” value in assay [1] (5% sucrose test sample, compound 2.5 ppm) was 78. Moreover, the “DA Panel Average Sweetness Intensity Score (on 15 cm scale)” value in assay [2] (4% fructose, pH 3) is 7.09; in assay [2] (4% fructose, pH 7), 7.08; in assay [2] (8% sucrose, pH 3), 9.23; in assay [2] (8% sucrose, pH 7), 10.22; in assay [2] (setting [3]), 1.58; in assay [2] (setting [4]), 1.58. Moreover, the “Fold enhancement of sweetness perception as compared to control sweetener solution” value in assay [2] (4% fructose, pH 3) came to 1.41X; in assay [2] (4% fructose, pH 7) it was 1.62X; in assay [2] (8% sucrose, pH 3) it was 1.28X; in assay [2] (8% sucrose, pH 7), 1.36X. Moreover, the “Perceived inherent sweetness compared to solubilizing agent alone” value in assay [2] is “do not show further significant increase in perceived inherent sweetness”. Also, the “Compound effects beyond the additive effect of inherent sweetness” value in assay [2] (pH 3) and in assay [2] (pH 7) was “super-additive effects” each time. The “Perceived sweetness vs control sweetener solutions (FIG. 2)” value in assay [2] (pH 3) is listed as “significant increase in perceived sweetness”. Besides, in assay [2] (pH 7), the “Perceived sweetness vs control sweetener solutions (FIG. 1)” value is reported as “significant increase in perceived sweetness”. In addition, the “Perceived sweetness compared to solubilizing agent alone (inherent sweetness)” value in assay [2] is listed as “further increase in perceived sweetness”.

With `COc1ccc(C2CC(=O)c3c(O)cccc3O2)cc1O` (single isomer, unassigned) [Compound 2, 5-hydroxy-2-(3-hydroxy-4-methoxyphenyl)chroman-4-one], the “R Index Score” value in assay [1] (4% fructose test sample, compound 10 ppm) is reported as 81; in assay [1] (5% sucrose test sample, compound 10 ppm, significant at R index ≧60) it was 90. For the same compound, the “DA Panel Average Sweetness Intensity Score (on 15 cm scale)” value came out at 6.93 in assay [2] (4% fructose, pH 3); 7.08 in assay [2] (4% fructose, pH 7); 9.21 in assay [2] (8% sucrose, pH 3); 10.15 in assay [2] (8% sucrose, pH 7); 1.27 in assay [2] (setting [3]); 1.76 in assay [2] (setting [4]). Besides, the “Fold enhancement of sweetness perception as compared to control sweetener solution” value in assay [2] (4% fructose, pH 3) worked out at 1.38X; in assay [2] (4% fructose, pH 7) it was 1.62X; in assay [2] (8% sucrose, pH 3), 1.28X; in assay [2] (8% sucrose, pH 7), 1.35X. Moreover, the “Perceived inherent sweetness compared to solubilizing agent alone” value in assay [2] was “do not show further significant increase in perceived inherent sweetness”. For the same compound, the “Compound effects beyond the additive effect of inherent sweetness” value in assay [2] (pH 3) and in assay [2] (pH 7) was “super-additive effects” each time. Moreover, the “Perceived sweetness vs control sweetener solutions (FIG. 2)” value in assay [2] (pH 3) was “significant increase in perceived sweetness”. For the same compound, in assay [2] (pH 7), the “Perceived sweetness vs control sweetener solutions (FIG. 1)” value is “significant increase in perceived sweetness”. Besides, the “Perceived sweetness compared to solubilizing agent alone (inherent sweetness)” value in assay [2] is “further increase in perceived sweetness”.

Source of the values: patent publication US20160015064A1, “COMPOUNDS, COMPOSITIONS, AND METHODS FOR MODULATING SWEET TASTE” (CHROMOCELL CORPORATION, priority 2013, published 2016).
